Experimental data taken from patent EP0471841A1, “SULFONAMIDE DERIVATIVE AND PHARMACEUTICAL COMPOSITION CONTAINING THE SAME” (Asahi Kasei Kogyo Kabushiki Kaisha, priority 1990, dated 1991).
Where a name gives a salt, the structure may show the parent alone.

Tests used:
[1] = tested on: tracheal specimens excised from guinea pigs; experiment: Inhibitory effect on KCl-induced contraction of tracheal specimens excised from guinea pigs (Magnus tube); type: cell-based; conditions: Cavia porcellus; dose required for relaxing KCl-induced contraction to 50 %; final KCl concentration: 20 mM; 37 °C; compounds other than acid addition salts used as hydrochloride; 3 specimens per group; read-out: ED₅₀ Effect on KCl-induced contraction
Method: (§1) The bronchial smooth muscle-relaxing action of the sulfonamide derivative of the present invention was evaluated by the effect on suppression of KCl-induced contraction and PGF2α-induced contraction of bronchial specimens excised from guinea pigs.
According to a method in which tracheal specimens excised from guinea pigs were used (Takagi and Ozawa, "Yakubutsugaku Jikken (Experiments in Pharmacology)", pp.100-102, 1960, published by Nanzando Japan; and Fujiwara and Shibata, "Yakurigaku Kiso Jikenho (Methods of Fundamental Experiments in Pharmacology)" pp.131-134, 1982, published by Kyourin, Japan), relaxing effect of sulfonamide derivatives of the present invention on bronchial smooth muscle was examined. Of compounds (1) to (69) shown herein, compounds other than acid addition salts were individually used in the form of a hydrochloride which was obtained by the same method as described in Example 61.
From male guinea pigs weighing 350 to 500 g (Hartley strain, Kuroda Junkei Dobutsu), tracheas were excised and each of the excised tracheal specimens was hung in 20 ml of a Magnus tube filled with Krebs-Henseleit solution under isotonic conditions and the solution temperature was kept at 37 °C. An aqueous KCl solution was dropwise added into the Magnus tube (final KCl concentration: 20 mM) to contract the tracheal specimen. After the KCl-induced contraction became stable, each of the compounds of the present invention was dissolved in distilled water or physiological saline, and the compound solution was cumulatively added into the Magnus tube. The relaxing effect of each of the compounds of the present invention on contracted tracheal specimens was evaluated and a dose-response curve was obtained.
A dose required for relaxing KCl-induced contraction to 50 %, i.e., ED₅₀ was calculated from the dose-response curve. For comparison, the same method as described above was repeated except that aminophylline was used, to thereby determine an ED₅₀. The number of tracheal specimens in each group was 3.

[2] = tested on: tracheal specimens excised from guinea pigs; experiment: Inhibitory effect on PGF2α-induced contraction of tracheal specimens excised from guinea pigs (Magnus tube); type: cell-based; conditions: Cavia porcellus, dose required for relaxing PGF2α-induced contraction to 50 %; PGF2α final concentration: 1 µm; compounds used as hydrochloride; 3 specimens per group; read-out: PGF2α-induced contraction ED50
Method: as §1
Tracheal specimens excised from male guinea pigs weighing 350 to 500 g (Hartley strain, Kuroda Junkei Dobutsu) were contracted in substantially the same manner as in Application Example 1 except that PGF2α (final concentration: 1 µm) was used instead of KCl. After the contraction of the tracheal specimens became stable, each of the compounds (hydrochloride) of the present invention was dissolved in distilled water or physiological saline, and the compound solution was cumulatively added into the Magnus tube in the same manner as in Application Example 1. The relaxing effect of each of the compounds of the present invention on the contracted specimens was evaluated and a dose-response curve was obtained. The dose required for relaxing PGF2α-induced contraction to 50 %, i.e., ED₅₀ was calculated form the dose-response curve. Of compounds 3, 4, 30, 31, 36, 38, 48, 54 and 55, which were imdividually used herein, compounds other than acid addition salts were used in the form of a hydrochloride which was obtained in the same manner as described in Example 61. For comparison, the same procedure as described above was repeated except that aminophylline, comparative compound (1) and comparative compound (2) were individually used instead of the compound of the present invention, to obtain an ED₅₀. The number of specimens in each group was 3.

trachea = experiment: Effect on trachea in vivo: inhibition of histamine-induced tracheal contraction (modified Konzett-Rössler method); conditions: Cavia porcellus, iv, 0.05 h; compound 1 mg/kg through the femoral vein, histamine 20 µg/kg through the femoral vein 3 minutes later; anesthetized male guinea pigs; compounds used as hydrochloride; 3 animals per group; read-out: Inhibition of tracheal con-traction
Source text: Further, the inhibiting action of the compound of the present invention on the histamine-induced contraction of the trachea of a guinea pig was examined by in vivo experiment. As a result, the in vivo bronchodilation action was confirmed.
According to a modified method of Konzett-Rössler method [see J. Martinez et al, Bronchial Arterial Injections, vol. 33, 295, (1961); Masaaki Takai et al, Oyo Yakuri (Applied Pharmacology), vol. 17, p.345, (1979)], effect of the compounds of the present invention on trachea in vivo was examined. Of compounds 3, 4, 30, 31, 36, 38, 48, 54 and 55, which were used herein, compounds other than acid addition salts were individually subjected to testing in the form of a hydrochloride which was obtained in the same manner as described in Example 61. Urethane was intraperitoneally administered to male guinea pigs weighing 350 to 600 g (Hartley strain, Kuroda Junkei Dobutsu) in an amount of 1.5 g/kg of body weight to anesthetize the animals. Then, cannulae were inserted into the trachea and femoral vein of each animal under urethane anesthesia and fixed. The inserted tracheal cannula was connected to a respirator for small animal (model 1683, manufactured by Harvard Co., Ltd.) and a pneumotachometer (model MHF-1200, manufactured by Nihon Kohden Corp.) through a bottle containing water, the water surface of which was adjusted to a level which is 10 cm high from the bottom, and a respiratory volume was determined.
Each of the above-mentioned compounds of the present invention was administered to guinea pigs through the femoral vein in an amount of 1 mg/kg of body weight. After 3 minutes from the administration, histamine was administered to the same guinea pigs through the femoral vein in an amount of 20 µg/kg of body weight, to thereby induce contraction of trachea and the inhibition of the histamine-induced tracheal contraction by each of the above-described compounds of the present invention was determined. For comparison, the inhibition of histamine-induced tracheal contraction by each of aminophylline, comparative compound (1) and comparative compound (2) was determined in substantially the same manner as described above. As a solvent for each compound, physiological saline was used. The number of the guinea pigs tested in each group was 3.

`O=S(=O)(NCCNCc1ccc2c(c1)OCO2)c1cccc2cnccc12` [(3), N-[2(3,4-methylenedioxybenzylamino)ethyl]-5-isoquinolinesulfonamide] showed an EC50 [1] of 5.2 µM, an EC50 [2] of 23 µM and an inhibition in vivo at 1 mg/kg (trachea) of 36%.
With `O=S(=O)(NCCNCc1ccc2c(c1)OCO2)c1cccc2c(O)nccc12` [(4), N-[2-(3,4-methylenedioxybenzylamino)ethyl]-1-hydroxy-5-isoquinolinesulfonamide hydrochloride] the EC50 [1] was 10 µM, the EC50 [2] was 5 µM and the inhibition in vivo at 1 mg/kg (trachea) was 25%.
For `O=S(=O)(NCCN1CCN(Cc2ccc3c(c2)OCO3)CC1)c1cccc2cnccc12` [(30), 1-(5-isoquinolinesulfonylaminoethyl)-4-(3,4-methylenedioxybenzyl)piperazine], the EC50 [1] was 16 µM and the EC50 [2] was 43 µM.
`O=S(=O)(NCCN1CCCN(Cc2ccc3c(c2)OCO3)CC1)c1cccc2cnccc12` [(31), 1-(5-isoquinolinesulfonylaminoethyl)-4-(3,4-methylenedioxybenzyl)homopiperazine] showed an EC50 [1] of 13 µM and an EC50 [2] of 31 µM.
`O=S(=O)(NCCN1CCCNCC1)c1ccc(Cl)c2ncccc12` [(36), 1-(8-chloro-5-quinolinesulfonylaminoethyl)homopiperazine] gave an EC50 [1] of 43 µM and an EC50 [2] of 91 µM.
`O=S(=O)(NCCN1CCCN(Cc2ccc3c(c2)OCO3)CC1)c1ccc(Cl)c2ncccc12` [(38), 1-(8-chloro-5-quinolinesulfonylaminoethyl)-4-(3,4-methylenedioxybenzyl)homopiperazine] gave an EC50 [1] of 26 µM and an EC50 [2] of 74 µM.
In the case of `CCOc1ccc(S(=O)(=O)NCCN2CCCN(Cc3ccc4c(c3)OCO4)CC2)c2cccnc12` [(48), 1-(8-ethoxy-5-quinolinesulfonylaminoethyl)-4-(3,4-methylenedioxybenzyl)homopiperazine], the EC50 [1] is reported as 37 µM, the EC50 [2] is reported as 82 µM and the inhibition in vivo at 1 mg/kg (trachea) is reported as 33%.
`CCOc1ccc(S(=O)(=O)NCCN2CCN(CCc3ccc(OC)c(OC)c3)CC2)c2cccnc12` [(53), 1-(8-ethoxy-5-quinolinesulfonylaminoethyl)-4-(3,4-dimethoxyphenethyl)piperazine] showed an EC50 [1] of 120 µM.
For `O=S(=O)(c1ccc(Cl)c2ncccc12)N1CCCNCC1` [(54), 1-(8-chloro-5-quinolinesulfonyl)homopiperazine], the EC50 [1] was 38 µM, the EC50 [2] was 65 µM and the inhibition in vivo at 1 mg/kg (trachea) was 30%.
`CCOc1ccc(S(=O)(=O)N2CCCNCC2)c2cccnc12` [(55), 1-(8-ethoxy-5-quinolinesulfonyl)homopiperazine] was tested, and the EC50 [1] was 45 µM, the EC50 [2] was 71 µM and the inhibition in vivo at 1 mg/kg (trachea) was 23%.
`O=S(=O)(c1ccc(Cl)c2ncccc12)N1CCNCC1` [(56), 1-(8-chloro-5-quinolinesulfonyl)piperazine] showed an EC50 [1] of 49 µM.
With `CCOc1ccc(S(=O)(=O)N2CCNCC2)c2cccnc12` [(57), 1-(8-ethoxy-5-quinolinesulfonyl)piperazine] the EC50 [1] was 57 µM.
Molecule `O=S(=O)(c1cccc2ncccc12)N1CCCNCC1` [(58), 1-(5-quinolinesulfonyl)homopiperazine] has an EC50 [1] of 79 µM.
In the case of `O=S(=O)(c1cccc2ncccc12)N1CCNCC1` [(59), 1-(5-quinolinesulfonyl)piperazine], the EC50 [1] is reported as 90 µM.
Molecule `COc1ccc(CCNC(C)CNS(=O)(=O)c2ccc(Cl)c3ncccc23)cc1OC` (stereo not shown) [(60), N-[2-(3,4-dimethoxyphenethylamino)-2-methylethyl]-8-chloro-5-quinolinesulfonamide] has an EC50 [1] of 110 µM.
`Cn1c(=O)c2[nH]cnc2n(C)c1=O` [Aminophylline, aminophylline, reference compound] gave an EC50 [2] greater than 200 µM and an inhibition in vivo at 1 mg/kg (trachea) of 7%.
`CCCCCCN(CCN)S(=O)(=O)c1cccc2cnccc12` [Comparative compound (1), N-(2-aminoethyl)-N-hexyl-5-isoquinolinesulfonamide hydrochloride, reference compound] was tested, and the EC50 [2] was 101 µM and the inhibition in vivo at 1 mg/kg (trachea) was 9%.
`NC1CCCN(S(=O)(=O)c2cccc3cnccc23)C1` (stereo not shown) [Comparative compound (2), 1-(5-isoquinolinesulfonyl)-3-aminopiperidine hydrochloride, reference compound] was tested, and the EC50 [2] was 93 µM and the inhibition in vivo at 1 mg/kg (trachea) was 12%.
Molecule `O=S(=O)(NCCNCc1ccc2c(c1)OCO2)c1cccc2ncccc12` [Compound (27), N-[2-(3,4-methylenedioxybenzylamino)ethyl]-5-quinolinesulfonamide] has an EC50 [1] of 86 µM.
`CCOc1ccc(S(=O)(=O)NCCN2CCCNCC2)c2cccnc12` [Compound (46), 1-(8-ethoxy-5-quinolinesulfonylaminoethyl) homopiperazine] showed an EC50 [1] of 51 µM.
